Data published in patent US6855505B2, “Method for quantifying TGF-β” (Renovo Limited, priority 1998, dated 2005).

Columns and labels:
active TGF-β = test: Active TGF-β in wound cryosections, modified PAI/L assay; format: in vivo, rat; conditions: for level of active TGF-β in treated wounds compared with PBS controls: M6P 100 mM, 100 μl/wound/day; for level of active TGF-β in treated wounds compared to controls: 100 μM kistrin
Description: (§1) Adult male Sprague-Dawley rats (Charles River UK Ltd, Kent, UK) weighing 225-250 g were anaesthetised by inhalation of halothane, nitrous oxide, and oxygen. The back of the rats was shaved, and four full-thickness linear incisions of 1 cm length, including the panniculus carnosus, were made on the back of the animals using a scalpel as described in Shah et al., “Control of scarring in adult wounds by neutralising antibody to transforming growth factor β, Lancet. 339: 213-214, 1992. The wounds were left unsutured to heal by secondary intention. The animals were allowed to recover, housed separately, and fed ad libitum until the wounds were harvested. The animals were killed by chloroform overdose at 1 hour, 6 hour, or 1, 2, 3, 4, 5, 7, 10 and 14 days post-wounding. The wounds were harvested and processed as described below. All animal experiments were carried out under appropriate licences according to UK Home Office regulations.
(§2) The wound area was swabbed with 70% ethanol. The wounds were carefully dissected from surrounding tissue and subsequently embedded in 8% sterile methyl cellulose (Sigma, Dorset, UK) and snap frozen in liquid nitrogen. Four wounds from each animal were embedded in one block of methyl cellulose. Four tissue samples of equivalent size representing surrounding tissue adjacent to the wound were also excised and processed as described above. Normal skin from the back of non-wounded rats was used as a control. The embedded tissue samples were stored at −80° C. for a maximum of 3 months. Thick cryosections (20 μm) were cut and placed on sterilised 13-mm round coverslips and analysed in duplicate. The coverslips, each carrying 4 cryosections of the wound, were placed into a 24-well cell culture plate and temporarily stored at −20° C. until transferred onto mink lung epithelial cells (MLECs).
Referring to FIG. 1, the original PAI/L assay for the quantification of TGF-β in liquid samples was modified in order to measure active/latent TGF-β levels in a tissue section of a wound site to provide an indication of the levels at the wound site in vivo. As shown in FIG. 1A MLECs (10) were plated for 4 h into 24-well plates. one well (12) being represented in FIG. 1A (3×10^5/ml, 500 μl/well) in complete DMEM and incubated for 4 hours at 37° C. Then, serum-containing medium was replaced with 500 μl of DMEM containing 0.1% pyrogen-poor BSA (from Pierce, Rockford, Ill., USA), aprotinin (1 μg/ml) (from Sigma, Dorset, UK) penicillin (100 U/ml) and streptomyciln (100 μg/ml), designated DMEM-BSA medium (14). The coverslips (16) carrying cryosections (18) were placed upside down onto the MLECs (10) in the 24-well plates.
These serial dilutions were added to the MLECs (10) together with methyl-cellulose coated coverslips (16).
Both samples and TGF-β standards were incubated with the MLECs (10) overnight at 37° C. MLECs (10) were then washed with phosphate buffered saline (PBS) and lysed with 200 μl of luciferase cell lysis buffer (from Analytical Luminescence Laboratory, Ann Arbor, USA) for 20 minutes at room temperature. Forty-five microliters of the lysates was transferred in triplicate to a Microlite 96-well plate (Dynatech Laboratories Inc. Chantilly, Va., USA). Luciferase activity in the lysates was determined using an MLX Microtiter Plate Luminometer (Dynex Technologies, Chantilly, Va., USA).
(§3) 20 animals each received 4 wounds which were subsequently treated with M6P (100 mM, 100 μl/wound/day). Animals were killed at 1 and 6 hours and 1, 3, 5, 7, 10 and 14 days post wounding. The wounds were dissected and embedded in methyl cellulose, then snap frozen. The tissue samples were subsequently prepared for use in the modified PAI-1/L assay.
Briefly, rat incisional wounds were treated with 1 mM monodansylcadaverine (MDC), a potent inhibitor of Transglutaminase activity. The wounds were prepared and assayed as described previously. […]

total TGF-β = test: Total TGF-β (active plus latent) in heat-activated wound cryosections, PAI/L assay; format: in vivo, rat; conditions: for level of total TGF-β in treated wounds compared with control wounds: M6P 100 mM, 100 μl/wound/day; for level of total TGF-β in treated wounds compared to controls: 100 μM kistrin
Description: as §1, §2
In order to measure total TGF-β (active plus latent) in the wound tissue samples, the coverslips carrying the cryosections were submerged in 500 μl of DMEM-BSA medium in a sterile glass embryo dish (BDH, Merck, Leics., UK) and incubated for 20 minutes at 80° C. in order to heat activate latent TGF-β. Following heat activation, the coverslips were transferred, together with the medium, onto MLECs for TGF-β quantification in the PAI/L assay according to Example 1. Similar results were obtained in three separate experiments.
as §3
(§4) Briefly, rat incisional wounds were treated with 100 μM kistrin, then prepared and assayed as described previously.

rat incisional wounds [1] = test: Scarring in rat incisional wound model; format: in vivo
Description: as §1
Briefly, rat incisional wounds were treated with 1 mM monodansylcadaverine (MDC), a potent inhibitor of Transglutaminase activity. The wounds were prepared and assayed as described previously.
as §4

rat incisional wounds [2] = conditions: application into rat dermal wounds; earlier studies; cited from earlier work
latent TGF-β = test: Latent TGF-β in wound sections; format: in vivo, rat; conditions: 100 μM kistrin; 1 hour post wounding
Experimental: as §4

[3] = rat incisional wounds treated with 1 mM MDC

O=C[C@@H](O)[C@@H](O)[C@H](O)[C@H](O)COP(=O)(O)O [M6P, mannose-6-phosphate]
level of active TGF-β in treated wounds compared with PBS controls (active TGF-β; 1 hour post wounding): less | level of active TGF-β in treated wounds compared with PBS controls (active TGF-β; 6 hours post wounding): less | level of active TGF-β in treated wounds compared with PBS controls (active TGF-β; 10 days post wounding): more active TGF-β than controls | level of active TGF-β in treated wounds compared with PBS controls (active TGF-β; after 6 hours until 10 days post wounding): comparable | reduction of levels of active TGF-β in vivo (overall conclusion) (active TGF-β; M6P treated rat wounds, early stages of wound repair): effective in reducing the levels of active TGF-β in vivo | level of total TGF-β in treated wounds compared with control wounds (total TGF-β; 6 hours post wounding): higher than controls | level of total TGF-β in treated wounds compared with control wounds (total TGF-β; 5 days post wounding): higher than controls | level of total TGF-β in treated wounds compared with control wounds (total TGF-β; 7 days post wounding): less than controls | level of total TGF-β in treated wounds compared with control wounds (total TGF-β; 10 days post wounding): higher than controls | scarring (rat incisional wounds [1]; local administration of M6P, rat incisional wound model, previously demonstrated by the applicant): significantly reduces scarring | quality of scarring (rat incisional wounds [2]): improve the quality of scarring

CN(C)c1cccc2c(S(=O)(=O)NCCCCCN)cccc12 [MDC, monodansylcadaverine]
early TGF-β levels (active TGF-β; [3]): reduces early TGF-β levels | TGF-β activation in vivo (active TGF-β; rat incisional wounds treated with 1 mM MDC, FIG. 8): inhibits TGF-β activation in vivo | scarring (rat incisional wounds [1]; [3]): improves scarring

kistrin
level of active TGF-β in treated wounds compared to controls (active TGF-β; 1 hour post wounding): increased | level of active TGF-β in treated wounds compared to controls (active TGF-β; 5 days post wounding): no differences | level of total TGF-β in treated wounds compared to controls (total TGF-β; 1 hour post wounding): increased | level of total TGF-β in treated wounds compared to controls (total TGF-β; 5 days post wounding): no differences | amount of latent TGF-β compared to controls (latent TGF-β): no difference | antiscarring effect (rat incisional wounds [1]; kistrin treated rat incisional wounds): no antiscarring effect
